In US20040067889A1, “Stabilization of brain natriuretic peptide (BNP) in blood samples, methods and compositions related thereto” (priority 2002, published 2004):
Like-named read-outs stand apart in the source and are kept apart here.

Key:
Format in all cases: biochemical
[1] = test system: endogenous proteases; experiment: Stability of synthetic BNP-32 spiked into normal human plasma with protease inhibitors (chemiluminescent BNP immunoassay); conditions: for 1 week (RLU) / 2 weeks (RLU) / 4 weeks % Signal Recovered / 4 weeks (RLU) / 72 hrs (RLU) / 22 days (RLU) / Day 0 (RLU): IHPP + 10 ng/ml BNP, 4° C., AEBSF 200 μg/ml, antipain 100 μg/ml, benzamidine 14 mM, PPACK 50 μg/ml, or all four; for efficacy in stabilizing BNP (in words): Table 11, inhibitors at usual functional concentrations
[2] = test system: endogenous proteases; experiment: Stability of spiked synthetic BNP in bovine fetal serum with inhibitors; conditions: BFS; for Recovery versus 1st run: 48 hours at 4° C.
Description: (§1) To generate an analytical signal to quantify the BNP concentration in the sample, two monoclonal BNP-specific antibodies (Shionogi & Co., LTD, Osaka, Japan; EP542255A1/B1; JP 3297392) were used. The first antibody was labeled with acridinium ester (AE) and the second antibody was labeled with biotin. The two antibodies bind to BNP molecules present in the plasma samples to form a complex; the formed complex was captured by paramagnetic particles (PMP) coated with streptavidin. PMP was separated by magnetic field and washed to remove non-specifically bound material. BNP-AE complexes retained on the PMP were treated with alkaline solution to produce a chemiluminescent signal, which was proportional to the amount of BNP captured; the signal was measured in relative light units or “RLU”. The assay was carried out on an automated chemiluminescent system ADIVA:Centaur™ (Bayer Corporation, Tarrytown, N.Y.) using BNP detection reagents, such as have been described. (e.g., B. Bluestein et al., 2002, “Development of an automated test for BNP as an aid in the diagnosis and evaluation of CHF on the Bayer ADVIA Centaur ACS”, Clinical Chemistry, 48(S6):A85, Abstract C37).
(§2) Experiments were performed to assess BNP stabilization in animal serum and human serum versus human plasma. Tables 9 and 10 below illustrate the efficacy of PPACK and leupeptin as BNP stabilizers in three different media, namely, bovine fetal serum (Biocell Labs, Rancho Dominguez, Calif.), normal human serum (Biocell Labs), and normal human plasma (Intergen).

[3] = test system: endogenous proteases; experiment: Stability of spiked synthetic BNP in normal human serum with inhibitors; conditions: HS; for Recovery versus 1st run: 48 hours at 4° C.
Description: as §1, §2

[4] = HP, spiked synthetic BNP, leupeptin 0.5 μg/ml
[5] = HP, spiked synthetic BNP, leupeptin 5 μg/ml
[6] = HP, spiked synthetic BNP, leupeptin 50 μg/ml
[7] = IHP (EDTA) with synthetic BNP-32 added, each inhibitor 50 μg/ml
[8] = Plasma A, spiked synthetic BNP, inhibitor 0.62 μg/ml
[9] = Plasma A, spiked synthetic BNP, inhibitor 1.85 μg/ml
[10] = Plasma A, spiked synthetic BNP, inhibitor 5.56 μg/ml
[11] = Plasma A, spiked synthetic BNP, inhibitor 16.7 μg/ml
[12] = Plasma A, spiked synthetic BNP, inhibitor 50 μg/ml

NCCc1ccc(S(=O)(=O)F)cc1 [AEBSF, 4-(2-aminoethyl)benzenesulfonylfluoride]
% Recovery vs 1st run (Time 0) [1]: 85.2% | BNP, 1st run (Time 0) [1]: 741.7 pg/mL | BNP, 3 hours at 4° C. [1]: 768.6 pg/mL | BNP, 17 hours at 4° C. [1]: 715.2 pg/mL | BNP, 40 hours at 4° C. [1]: 735.7 pg/mL | BNP, 6 days at 4° C. [1]: 631.9 pg/mL | 1 week (RLU) [1]: 2504809 RLU | 2 weeks (RLU) [1]: 4241 RLU | 4 weeks % Signal Recovered [1]: 0.1% | 4 weeks (RLU) [1]: 2434 RLU | 72 hrs (RLU) [1]: 3249767 RLU | 22 days (RLU) [1]: 3812 RLU | Day 0 (RLU) [1]: 4079471 RLU | efficacy in stabilizing BNP (in words) [1]: intermediate efficacy

N=C(N)c1ccccc1 [benzamidine]
% Recovery vs 1st run (Time 0) [1]: 82.6% | BNP, 1st run (Time 0) [1]: 830.6 pg/mL | BNP, 3 hours at 4° C. [1]: 806.8 pg/mL | BNP, 17 hours at 4° C. [1]: 860.5 pg/mL | BNP, 40 hours at 4° C. [1]: 813.8 pg/mL | BNP, 6 days at 4° C. [1]: 686.3 pg/mL | 1 week (RLU) [1]: 2568730 RLU | 2 weeks (RLU) [1]: 238972 RLU | 4 weeks % Signal Recovered [1]: 0.8% | 4 weeks (RLU) [1]: 30024 RLU | 72 hrs (RLU) [1]: 3342787 RLU | 22 days (RLU) [1]: 108308 RLU | Day 0 (RLU) [1]: 3927159 RLU | efficacy in stabilizing BNP (in words) [1]: intermediate efficacy

CC(=O)N[C@@H](CC(C)C)C(=O)N[C@@H](CC(C)C)C(=O)N[C@H](C=O)CCCNC(=N)N [leupeptin, acetyl-leu-leu-arginal]
BNP, 3 hours at 4° C. before freezing ([2]; leupeptin 0.5 μg/ml): 639.6 pg/mL | BNP, 24 hours at 4° C. before freezing ([2]; leupeptin 0.5 μg/ml): 537.2 pg/mL | BNP, 48 hours at 4° C. before freezing ([2]; leupeptin 0.5 μg/ml): 424.9 pg/mL | BNP, frozen w/o storage at 4° C. ([2]; leupeptin 0.5 μg/ml): 712.9 pg/mL | Recovery versus 1st run ([2]; leupeptin 0.5 μg/ml): 59.6% | BNP, 3 hours at 4° C. before freezing ([2]; leupeptin 5 μg/ml): 672.2 pg/mL | BNP, 24 hours at 4° C. before freezing ([2]; leupeptin 5 μg/ml): 601.7 pg/mL | BNP, 48 hours at 4° C. before freezing ([2]; leupeptin 5 μg/ml): 498.9 pg/mL | BNP, frozen w/o storage at 4° C. ([2]; leupeptin 5 μg/ml): 845.0 pg/mL | Recovery versus 1st run ([2]; leupeptin 5 μg/ml): 59.0% | BNP, 3 hours at 4° C. before freezing ([2]; leupeptin 50 μg/ml): 751.1 pg/mL | BNP, 24 hours at 4° C. before freezing ([2]; leupeptin 50 μg/ml): 707.0 pg/mL | BNP, 48 hours at 4° C. before freezing ([2]; leupeptin 50 μg/ml): 614.5 pg/mL | BNP, frozen w/o storage at 4° C. ([2]; leupeptin 50 μg/ml): 810.5 pg/mL | Recovery versus 1st run ([2]; leupeptin 50 μg/ml): 75.8% | BNP, 3 hours at 4° C. before freezing ([3]; leupeptin 0.5 μg/ml): 129.0 pg/mL | BNP, 24 hours at 4° C. before freezing ([3]; leupeptin 0.5 μg/ml): 45.1 pg/mL | BNP, 48 hours at 4° C. before freezing ([3]; leupeptin 0.5 μg/ml): 11.4 pg/mL | BNP, frozen w/o storage at 4° C. ([3]; leupeptin 0.5 μg/ml): 227.7 pg/mL | Recovery versus 1st run ([3]; leupeptin 0.5 μg/ml): 5.0% | BNP, 3 hours at 4° C. before freezing ([3]; leupeptin 5 μg/ml): 203.0 pg/mL | BNP, 24 hours at 4° C. before freezing ([3]; leupeptin 5 μg/ml): 135.6 pg/mL | BNP, 48 hours at 4° C. before freezing ([3]; leupeptin 5 μg/ml): 74.3 pg/mL | BNP, frozen w/o storage at 4° C. ([3]; leupeptin 5 μg/ml): 311.1 pg/mL | Recovery versus 1st run ([3]; leupeptin 5 μg/ml): 23.9% | BNP, 3 hours at 4° C. before freezing ([3]; leupeptin 50 μg/ml): 274.2 pg/mL | BNP, 24 hours at 4° C. before freezing ([3]; leupeptin 50 μg/ml): 217.5 pg/mL | BNP, 48 hours at 4° C. before freezing ([3]; leupeptin 50 μg/ml): 156.6 pg/mL | BNP, frozen w/o storage at 4° C. ([3]; leupeptin 50 μg/ml): 297.9 pg/mL | Recovery versus 1st run ([3]; leupeptin 50 μg/ml): 52.6% | % Recovery vs 1st run (Time 0) [1]: 105.5% | BNP, 1st run (Time 0) [1]: 792.0 pg/mL | BNP, 3 hours at 4° C. [1]: 896.9 pg/mL | BNP, 17 hours at 4° C. [1]: 864.4 pg/mL | BNP, 40 hours at 4° C. [1]: 873.7 pg/mL | BNP, 6 days at 4° C. [1]: 835.9 pg/mL | BNP, 3 hours at 4° C. before freezing [1, 4]: 751.3 pg/mL | BNP, 24 hours at 4° C. before freezing [1, 4]: 696.1 pg/mL | BNP, 48 hours at 4° C. before freezing [1, 4]: 672.6 pg/mL | BNP, frozen w/o storage at 4° C. [1, 4]: 765.2 pg/mL | Recovery versus 1st run ([1]; HP, spiked synthetic BNP, leupeptin 0.5 μg/ml, 48 hours at 4° C.): 87.9% | BNP, 3 hours at 4° C. before freezing [1, 5]: 828.3 pg/mL | BNP, 24 hours at 4° C. before freezing [1, 5]: 807.5 pg/mL | BNP, 48 hours at 4° C. before freezing [1, 5]: 784.4 pg/mL | BNP, frozen w/o storage at 4° C. [1, 5]: 679.0 pg/mL | Recovery versus 1st run ([1]; HP, spiked synthetic BNP, leupeptin 5 μg/ml, 48 hours at 4° C.): 115.5% | BNP, 3 hours at 4° C. before freezing [1, 6]: 795.6 pg/mL | BNP, 24 hours at 4° C. before freezing [1, 6]: 763.0 pg/mL | BNP, 48 hours at 4° C. before freezing [1, 6]: 798.3 pg/mL | BNP, frozen w/o storage at 4° C. [1, 6]: 867.2 pg/mL | Recovery versus 1st run ([1]; HP, spiked synthetic BNP, leupeptin 50 μg/ml, 48 hours at 4° C.): 92.1% | Amount of BNP Present After 24 hr/4° C. [1, 7]: 2503.78 | Amount of BNP Present After 90 hr/4° C. [1, 7]: 2133.75 | Amount of BNP Present Before Storage, Day 0 [1, 7]: 2290.08 | BNP Amount % Change ([1]; IHP with synthetic BNP-32 added, each inhibitor 50 μg/ml, 90 hr/4° C. vs Day 0): −6.8% | BNP, 1st run (Time 0) [1, 8]: 847.4 pg/mL | BNP, 3 hours at 4° C. [1, 8]: 863.3 pg/mL | BNP, 17 hours at 4° C. [1, 8]: 776.1 pg/mL | BNP, 40 hours at 4° C. [1, 8]: 721.6 pg/mL | BNP, 6 days at 4° C. [1, 8]: 373.6 pg/mL | Recovery versus 1st run ([1]; Plasma A, spiked synthetic BNP, inhibitor 0.62 μg/ml, 6 days at 4° C.): 44.1% | BNP, 1st run (Time 0) [1, 9]: 841.7 pg/mL | BNP, 3 hours at 4° C. [1, 9]: 873.5 pg/mL | BNP, 17 hours at 4° C. [1, 9]: 859.4 pg/mL | BNP, 40 hours at 4° C. [1, 9]: 795.5 pg/mL | BNP, 6 days at 4° C. [1, 9]: 604.7 pg/mL | Recovery versus 1st run ([1]; Plasma A, spiked synthetic BNP, inhibitor 1.85 μg/ml, 6 days at 4° C.): 71.8% | BNP, 1st run (Time 0) [1, 10]: 879.3 pg/mL | BNP, 3 hours at 4° C. [1, 10]: 900.4 pg/mL | BNP, 17 hours at 4° C. [1, 10]: 847.2 pg/mL | BNP, 40 hours at 4° C. [1, 10]: 808.0 pg/mL | BNP, 6 days at 4° C. [1, 10]: 722.8 pg/mL | Recovery versus 1st run ([1]; Plasma A, spiked synthetic BNP, inhibitor 5.56 μg/ml, 6 days at 4° C.): 82.2% | BNP, 1st run (Time 0) [1, 11]: 886.7 pg/mL | BNP, 3 hours at 4° C. [1, 11]: 849.8 pg/mL | BNP, 17 hours at 4° C. [1, 11]: 904.5 pg/mL | BNP, 40 hours at 4° C. [1, 11]: 903.1 pg/mL | BNP, 6 days at 4° C. [1, 11]: 808.2 pg/mL | Recovery versus 1st run ([1]; Plasma A, spiked synthetic BNP, inhibitor 16.7 μg/ml, 6 days at 4° C.): 91.1% | BNP, 1st run (Time 0) [1, 12]: 792.0 pg/mL | BNP, 3 hours at 4° C. [1, 12]: 896.9 pg/mL | BNP, 17 hours at 4° C. [1, 12]: 864.4 pg/mL | BNP, 40 hours at 4° C. [1, 12]: 873.7 pg/mL | BNP, 6 days at 4° C. [1, 12]: 835.9 pg/mL | Recovery versus 1st run ([1]; Plasma A, spiked synthetic BNP, inhibitor 50 μg/ml, 6 days at 4° C.): 105.5%
